Reference: ChEMBL document CHEMBL1275577, “Study of the in vitro activities of rifaximin and comparator agents against 536 anaerobic intestinal bacteria from the perspective of potential utility in pathology involving bowel flora” (Antimicrob Agents Chemother, 2009)

Columns and labels:
Format in all cases: functional
Parabacteroides merdae = assay: Antimicrobial activity against Parabacteroides merdae by Wadsworth agar dilution method in presence of beta-lactamase inhibitor Sulbactam
Bacteroides caccae = assay: Antimicrobial activity against Bacteroides caccae by Wadsworth agar dilution method in presence of beta-lactamase inhibitor Sulbactam
Bacteroides stercoris = assay: Antimicrobial activity against Bacteroides stercoris by Wadsworth agar dilution method in presence of beta-lactamase inhibitor Sulbactam
Bilophila wadsworthia = assay: Antimicrobial activity against Bilophila wadsworthia by Wadsworth agar dilution method in presence of 1% pyruvic acid and beta-lactamase inhibitor Sulbactam
Desulfovibrio piger = assay: Antimicrobial activity against Desulfovibrio piger by Wadsworth agar dilution method in presence of beta-lactamase inhibitor Sulbactam
Desulfovibrio sp. = assay: Antimicrobial activity against Desulfovibrio sp. by Wadsworth agar dilution method in presence of beta-lactamase inhibitor Sulbactam
[1] = tested on: Porphyromonas asaccharolytica; assay: Antimicrobial activity against Porphyromonas asaccharolyticus by Wadsworth agar dilution method in presence of beta-lactamase inhibitor Sulbactam
Prevotella bivia = assay: Antimicrobial activity against Prevotella bivia by Wadsworth agar dilution method in presence of beta-lactamase inhibitor Sulbactam
Prevotella corporis = assay: Antimicrobial activity against Prevotella corporis by Wadsworth agar dilution method in presence of beta-lactamase inhibitor Sulbactam
[2] = tested on: Prevotella melaninogenica; assay: Antimicrobial activity against Prevotella melaninogenica by Wadsworth agar dilution method in presence of beta-lactamase inhibitor Sulbactam
Flavonifractor plautii = assay: Antimicrobial activity against Clostridium orbiscindens by Wadsworth agar dilution method in presence of beta-lactamase inhibitor Sulbactam
Clostridium perfringens = assay: Antimicrobial activity against Clostridium perfringens by Wadsworth agar dilution method in presence of beta-lactamase inhibitor Sulbactam
[3] = tested on: Clostridium acetobutylicum; assay: Antimicrobial activity against Clostridium acetobutylicum by Wadsworth agar dilution method in presence of beta-lactamase inhibitor Sulbactam
[4] = tested on: Clostridium aminobutyricum; assay: Antimicrobial activity against Clostridium aminobutyricum by Wadsworth agar dilution method in presence of beta-lactamase inhibitor Sulbactam
Clostridium glycolicum = assay: Antimicrobial activity against Clostridium glycolicum by Wadsworth agar dilution method in presence of beta-lactamase inhibitor Sulbactam; details: Terrisporobacter glycolicus
Clostridium nexile = assay: Antimicrobial activity against Clostridium nexile by Wadsworth agar dilution method in presence of beta-lactamase inhibitor Sulbactam; details: Faecalimonas nexilis
Clostridium scindens = assay: Antimicrobial activity against Clostridium scindens by Wadsworth agar dilution method in presence of beta-lactamase inhibitor Sulbactam
Clostridium septicum = assay: Antimicrobial activity against Clostridium septicum by Wadsworth agar dilution method in presence of beta-lactamase inhibitor Sulbactam
[5] = tested on: Paeniclostridium sordellii; assay: Antimicrobial activity against Clostridium sordellii by Wadsworth agar dilution method in presence of beta-lactamase inhibitor Sulbactam; details: Paraclostridium sordellii
Clostridium sp. = assay: Antimicrobial activity against Clostridium sp. by Wadsworth agar dilution method in presence of beta-lactamase inhibitor Sulbactam
Clostridium spiroforme = assay: Antimicrobial activity against Clostridium spiroforme by Wadsworth agar dilution method in presence of beta-lactamase inhibitor Sulbactam; details: Thomasclavelia spiroformis
Schaalia odontolytica = assay: Antimicrobial activity against Actinomyces odontolyticus by Wadsworth agar dilution method in presence of beta-lactamase inhibitor Sulbactam
[6] = tested on: Bifidobacterium adolescentis; assay: Antimicrobial activity against Bifidobacterium adolescentis by Wadsworth agar dilution method in presence of beta-lactamase inhibitor Sulbactam
Eubacterium cylindroides = assay: Antimicrobial activity against Eubacterium cylindroides by Wadsworth agar dilution method in presence of beta-lactamase inhibitor Sulbactam; details: Faecalitalea cylindroides
Holdemania filiformis = assay: Antimicrobial activity against Holdemania filiformis by Wadsworth agar dilution method in presence of beta-lactamase inhibitor Sulbactam
Lactobacillus jensenii = assay: Antimicrobial activity against Lactobacillus jensenii by Wadsworth agar dilution method in presence of beta-lactamase inhibitor Sulbactam
[7] = tested on: Propionibacterium propionicum; assay: Antimicrobial activity against Propionibacterium propionicum by Wadsworth agar dilution method in presence of beta-lactamase inhibitor Sulbactam; details: Arachnia propionica
Anaerococcus tetradius = assay: Antimicrobial activity against Anaerococcus tetradius by Wadsworth agar dilution method in presence of beta-lactamase inhibitor Sulbactam
Peptoniphilus harei = assay: Antimicrobial activity against Peptoniphilus harei by Wadsworth agar dilution method in presence of beta-lactamase inhibitor Sulbactam
Parvimonas micra = assay: Antimicrobial activity against Peptostreptococcus micros by Wadsworth agar dilution method in presence of beta-lactamase inhibitor Sulbactam
Ruminococcus lactaris = assay: Antimicrobial activity against Ruminococcus lactaris by Wadsworth agar dilution method in presence of beta-lactamase inhibitor Sulbactam
Ruminococcus obeum = assay: Antimicrobial activity against Ruminococcus obeum by Wadsworth agar dilution method in presence of beta-lactamase inhibitor Sulbactam; details: Blautia obeum
Blautia producta = assay: Antimicrobial activity against Ruminococcus productus by Wadsworth agar dilution method in presence of beta-lactamase inhibitor Sulbactam
Ruminococcus torques = assay: Antimicrobial activity against Ruminococcus torques by Wadsworth agar dilution method in presence of beta-lactamase inhibitor Sulbactam; details: Mediterraneibacter torques

CC1(C)S[C@@H]2[C@H](NC(=O)[C@H](N)c3ccccc3)C(=O)N2[C@H]1C(=O)O [AMPICILLIN]
0.5 µg/mL: MIC90 [1] | MIC50 (Prevotella bivia) | MIC50 (Prevotella corporis) | MIC50 [2]
32 µg/mL: MIC90 (Parabacteroides merdae) | MIC90 (Bacteroides caccae) | MIC90 (Desulfovibrio piger) | MIC90 (Desulfovibrio sp.)
0.25 µg/mL: MIC [1] | MIC50 [1] | MIC50 (Clostridium perfringens) | MIC90 (Clostridium perfringens) | MIC [3] | MIC50 [3] | MIC [4] | MIC50 [4] | MIC (Clostridium glycolicum) | MIC50 (Clostridium glycolicum) | MIC (Clostridium nexile) | MIC50 (Clostridium nexile) | MIC (Clostridium scindens) | MIC50 (Clostridium scindens) | MIC (Clostridium septicum) | MIC50 (Clostridium septicum) | MIC [5] | MIC50 [5] | MIC (Clostridium sp.) | MIC50 (Clostridium sp.) | MIC (Clostridium spiroforme) | MIC50 (Clostridium spiroforme) | MIC (Schaalia odontolytica) | MIC50 (Schaalia odontolytica) | MIC [6] | MIC50 [6] | MIC (Eubacterium cylindroides) | MIC50 (Eubacterium cylindroides) | MIC (Holdemania filiformis) | MIC50 (Holdemania filiformis) | MIC (Lactobacillus jensenii) | MIC50 (Lactobacillus jensenii) | MIC [7] | MIC50 [7] | MIC (Anaerococcus tetradius) | MIC50 (Anaerococcus tetradius) | MIC (Peptoniphilus harei) | MIC50 (Peptoniphilus harei) | MIC (Parvimonas micra) | MIC50 (Parvimonas micra) | MIC (Ruminococcus lactaris) | MIC50 (Ruminococcus lactaris) | MIC (Ruminococcus obeum) | MIC50 (Ruminococcus obeum) | MIC (Blautia producta) | MIC50 (Blautia producta) | MIC (Ruminococcus torques) | MIC50 (Ruminococcus torques)
16 µg/mL: MIC50 (Parabacteroides merdae) | MIC50 (Bacteroides caccae) | MIC90 (Bacteroides stercoris) | MIC90 (Bilophila wadsworthia)
1 µg/mL: MIC90 [3] | MIC90 [4] | MIC90 (Clostridium glycolicum) | MIC90 (Clostridium nexile) | MIC90 (Clostridium scindens) | MIC90 (Clostridium septicum) | MIC90 [5] | MIC90 (Clostridium sp.) | MIC90 (Clostridium spiroforme)
4 µg/mL: MIC50 (Desulfovibrio piger) | MIC50 (Desulfovibrio sp.) | MIC90 (Prevotella bivia) | MIC90 (Prevotella corporis) | MIC90 [2] | MIC90 (Flavonifractor plautii)
2 µg/mL: MIC50 (Bacteroides stercoris) | MIC50 (Bilophila wadsworthia) | MIC (Flavonifractor plautii) | MIC50 (Flavonifractor plautii) | MIC90 (Schaalia odontolytica) | MIC90 [6] | MIC90 (Eubacterium cylindroides) | MIC90 (Holdemania filiformis) | MIC90 (Lactobacillus jensenii) | MIC90 [7] | MIC90 (Anaerococcus tetradius) | MIC90 (Peptoniphilus harei) | MIC90 (Parvimonas micra) | MIC90 (Ruminococcus lactaris) | MIC90 (Ruminococcus obeum) | MIC90 (Blautia producta) | MIC90 (Ruminococcus torques)
